Results on nine molecules are retold here after ChEMBL document CHEMBL5543092, “Design, synthesis, and biological characterization of proteolysis targeting chimera (PROTACs) for the ataxia telangiectasia and RAD3-related (ATR) kinase” (Eur J Med Chem, 2024).

A short description of data set [1]: Chemical stability of the compound in at pH 7.4 measured at 6 hrs by HPLC based non-enzymatic stability assay. Format: physicochemical. The conditions noted are these: buffer, read-out: Stability.
Data set [2] can be described thus: Chemical stability of the compound in at pH 7.4 measured at 12 hrs by HPLC based non-enzymatic stability assay. Format: physicochemical. The settings on record: buffer, read-out: Stability.
Data set [3] in a line: Chemical stability of the compound in at pH 7.4 measured at 24 hrs by HPLC based non-enzymatic stability assay. Format: physicochemical. The conditions noted are these: buffer, read-out: Stability.
Data set [4] can be described thus: Chemical stability of the compound in at pH 7.4 measured at 48 hrs by HPLC based non-enzymatic stability assay. The settings on record: buffer, read-out: Stability. Format: physicochemical.
Data set [5] is described as follows: Chemical stability of the compound in at pH 7.4 measured at 72 hrs by HPLC based non-enzymatic stability assay. Format: physicochemical. The conditions noted are these: buffer, read-out: Stability.
For a further data set, the system named is HEK293. Put plainly: Cytotoxicity against human HEK293 cells assessed as cell viability at 50 uM incubated for 24 hrs by Alamar Blue reagent based assay relative to control. The settings on record: read-out: Activity. Format: functional. For orientation: Alamar Blue is a resazurin reagent that responds to reducing activity.

With `Nc1ncc(-c2ccc(S(=O)(=O)NCCCCC(=O)NCCCC#Cc3cccc4c3CN(C3CCC(=O)NC3=O)C4=O)cc2)nc1C(=O)Nc1ccccc1` (centres undefined), the remaining at 6 h in data set [1] stood at 102%. In data set [2], the remaining at 12 h was determined as 102%. In data set [3], the remaining at 24 h was 102%. Besides, the remaining at 48 h in data set [4] worked out at 103%. In data set [5], the remaining at 72 h came out at 103%. Further, the viability at 50 µM with HEK293 amounted to 104%.

In the case of `Cc1ncsc1-c1ccc(CNC(=O)[C@@H]2C[C@@H](O)CN2C(=O)[C@@H](NC(=O)CCCCNS(=O)(=O)c2ccc(-c3cnc(N)c(-c4nnc(-c5ccccc5)o4)n3)cc2)C(C)(C)C)cc1`, the remaining at 6 h in data set [1] amounted to 100%. Besides, in data set [2], the remaining at 12 h was 100%. In addition, the remaining at 24 h in data set [3] was 102%. The remaining at 48 h in data set [4] was 103%. Besides, in data set [5], the remaining at 72 h stood at 104%. For the same molecule, the viability at 50 µM in the data set on HEK293 turned out to be 91.1%.

For `CNCc1ccc(-c2nnc(-c3nc(-c4ccc(S(=O)(=O)NCCCCC(=O)N5CCN(c6ccc7c(c6)C(=O)N(C6CCC(=O)NC6=O)C7=O)CC5)cc4)cnc3N)o2)cc1` (centres undefined), the remaining at 6 h in data set [1] amounted to 97%. Besides, the remaining at 12 h in data set [2] is 99%. For the same molecule, the remaining at 24 h in data set [3] amounted to 91%. Moreover, the remaining at 48 h in data set [4] was 83%. For the same molecule, the remaining at 72 h in data set [5] was found to be 74%. Further, the viability at 50 µM in the data set with HEK293 was found to be 104%.

As to `Nc1ncc(-c2ccc(S(=O)(=O)NCCCCCCCC(=O)NCC#Cc3cccc4c3CN(C3CCC(=O)NC3=O)C4=O)cc2)nc1C(=O)Nc1ccccc1` (centres undefined), the remaining at 6 h in data set [1] was 100%. Further, the remaining at 12 h in data set [2] is 100%. For the same molecule, the remaining at 24 h in data set [3] was determined as 98%. Moreover, in data set [4], the remaining at 48 h was found to be 77%. For the same molecule, in data set [5], the remaining at 72 h was 47%. For the same molecule, the viability at 50 µM with HEK293 came out at 94.2%.

On to `CNCc1ccc(-c2nnc(-c3nc(-c4ccc(S(=O)(=O)NCCCCCC(=O)N[C@H](C(=O)N5C[C@H](O)C[C@H]5C(=O)NCc5ccc(-c6scnc6C)cc5)C(C)(C)C)cc4)cnc3N)o2)cc1`, for which the remaining at 6 h in data set [1] worked out at 101%. For the same molecule, the remaining at 12 h in data set [2] is 100%. In addition, the remaining at 24 h in data set [3] is 101%. In addition, in data set [4], the remaining at 48 h was determined as 99%. In addition, the remaining at 72 h in data set [5] came to 99%. The viability at 50 µM in the data set with HEK293 was 81.8%.

As for `CNCc1ccc(-c2nnc(-c3nc(-c4ccc(S(=O)(=O)NCCCCCCC(=O)N5CCN(c6ccc7c(c6)C(=O)N(C6CCC(=O)NC6=O)C7=O)CC5)cc4)cnc3N)o2)cc1` (centres undefined), the remaining at 6 h in data set [1] was 97%. In addition, the remaining at 12 h in data set [2] came to 95%. Moreover, the remaining at 24 h in data set [3] worked out at 91%. Also, the remaining at 48 h in data set [4] came out at 79%. In data set [5], the remaining at 72 h amounted to 72%. For the same molecule, the viability at 50 µM in the data set on HEK293 was 95.7%.

With `Nc1ncc(-c2ccc(S(=O)(=O)NCCCCC(=O)N3CCN(c4ccc5c(c4)C(=O)N(C4CCC(=O)NC4=O)C5=O)CC3)cc2)nc1-c1nnc(-c2ccccc2)o1` (centres undefined), the remaining at 6 h in data set [1] was 99%. Also, the remaining at 12 h in data set [2] is 95%. Moreover, the remaining at 24 h in data set [3] stood at 91%. In data set [4], the remaining at 48 h was found to be 85%. The remaining at 72 h in data set [5] stood at 77%. In the data set with HEK293, the viability at 50 µM worked out at 97.6%.

Turning to `Nc1ncc(-c2ccc(S(=O)(=O)NCCCCCCC(=O)N3CCN(c4ccc5c(c4)C(=O)N(C4CCC(=O)NC4=O)C5=O)CC3)cc2)nc1C(=O)Nc1ccccc1` (centres undefined), the remaining at 6 h in data set [1] was found to be 97%. Further, the remaining at 12 h in data set [2] was 92%. In data set [3], the remaining at 24 h amounted to 88%. Further, the remaining at 48 h in data set [4] is 78%. Further, the remaining at 72 h in data set [5] was 70%. Moreover, the viability at 50 µM in the data set on HEK293 stood at 93.2%.

As to `Cc1ncsc1-c1ccc(CNC(=O)[C@@H]2C[C@@H](O)CN2C(=O)[C@@H](NC(=O)CCCCCNS(=O)(=O)c2ccc(-c3cnc(N)c(-c4nnc(-c5ccccc5)o4)n3)cc2)C(C)(C)C)cc1`, the remaining at 6 h in data set [1] was determined as 100%. The remaining at 12 h in data set [2] stood at 100%. In addition, in data set [3], the remaining at 24 h worked out at 102%. Besides, in data set [4], the remaining at 48 h is 103%. The remaining at 72 h in data set [5] worked out at 104%. The viability at 50 µM in the data set on HEK293 was found to be 79.8%.
